{"source": "paper PMC9204419", "about": "“A Toolbox for the Generation of Chemical Probes for Baculovirus IAP Repeat Containing Proteins” (Frontiers in Cell and Developmental Biology, 2022)", "key": {"BIRC2-BIR3 domain [1]": {"target": "T1, BIRC2-BIR3 domain (Homo sapiens, UniProt Q13490)", "T1 sequence (Q13490 260-352)": "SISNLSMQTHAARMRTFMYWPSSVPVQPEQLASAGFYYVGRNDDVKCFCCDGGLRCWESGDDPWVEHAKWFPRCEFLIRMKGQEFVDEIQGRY", "assay": "Differential scanning fluorimetry (DSF)", "settings": "for ΔTm [°C] (Supplementary Table S1): technical replicate", "experimental": "Purified proteins were buffered in DSF buffer (25 mM HEPES pH 7.5, 500 mM NaCl) and were assayed in a 384-well plate (Thermo, #BC3384) with a final protein concentration of 20 μM in 10 μL final assay volume. Inhibitors were added in excess to a final concentration of 40 μM, using an ECHO 550 acoustic dispenser (Labcyte). As a fluorescent probe, SYPRO-Orange (Molecular Probes) was used at 5x final concentration. […] Data was analyzed using Boltzmann-equation in the Protein Thermal Shift software (Applied Biosystems). Samples were measured in technical triplicates.\nThe assay was run in the presence of DMSO to exclude DMSO influences towards melting temperature differences when testing small molecules (Figures 2C,D)."}, "BIRC2": {"target": "BIRC2 (Homo sapiens, UniProt Q13490)", "sequence (Q13490 whole entry)": "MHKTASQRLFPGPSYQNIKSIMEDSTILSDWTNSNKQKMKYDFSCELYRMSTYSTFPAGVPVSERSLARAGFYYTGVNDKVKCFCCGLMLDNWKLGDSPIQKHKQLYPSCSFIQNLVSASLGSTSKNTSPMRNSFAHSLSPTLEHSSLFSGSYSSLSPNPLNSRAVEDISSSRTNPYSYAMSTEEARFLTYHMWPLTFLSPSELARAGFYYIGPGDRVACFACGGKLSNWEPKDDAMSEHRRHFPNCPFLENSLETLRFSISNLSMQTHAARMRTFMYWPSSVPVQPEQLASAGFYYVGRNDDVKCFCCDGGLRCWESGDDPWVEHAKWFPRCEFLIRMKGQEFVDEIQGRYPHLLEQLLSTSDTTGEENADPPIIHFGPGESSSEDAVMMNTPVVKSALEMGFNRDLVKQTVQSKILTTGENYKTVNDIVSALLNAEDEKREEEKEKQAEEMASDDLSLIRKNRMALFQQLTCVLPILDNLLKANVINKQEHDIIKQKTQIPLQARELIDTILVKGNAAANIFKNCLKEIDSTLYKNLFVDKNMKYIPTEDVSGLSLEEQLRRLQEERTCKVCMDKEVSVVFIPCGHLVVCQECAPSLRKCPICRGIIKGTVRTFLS", "assay": "NanoBRET cellular target engagement, full-length BIRC2", "settings": "read-out: EC50 ± SEM NanoBRET BIRC2; full-length, HEK293T, n = 4", "experimental": "(§1) In brief: Constructs contained the cDNA of full-length or single domains cloned in frame with an N-terminal NanoLuc-fusion as specified in Supplementary Table S2. Plasmids were transfected into HEK293T cells using FuGENE HD (Promega, E2312) and proteins were allowed to express for 20 h. […] The corresponding transfected cells were added and reseeded at a density of 2.5^5 cells/mL after trypsinization and resuspending in Opti-MEM without phenol red (Life Technologies). […] Competitive displacement data were then graphed using GraphPad Prism 9.3 software using a normalized 3-parameter curve fit with the following equation: Y = 100/(1 + 10^(X-LogIC50))."}, "BIRC7": {"target": "T2, BIRC7 (Homo sapiens, UniProt Q96CA5)", "T2 sequence (Q96CA5 1-298)": "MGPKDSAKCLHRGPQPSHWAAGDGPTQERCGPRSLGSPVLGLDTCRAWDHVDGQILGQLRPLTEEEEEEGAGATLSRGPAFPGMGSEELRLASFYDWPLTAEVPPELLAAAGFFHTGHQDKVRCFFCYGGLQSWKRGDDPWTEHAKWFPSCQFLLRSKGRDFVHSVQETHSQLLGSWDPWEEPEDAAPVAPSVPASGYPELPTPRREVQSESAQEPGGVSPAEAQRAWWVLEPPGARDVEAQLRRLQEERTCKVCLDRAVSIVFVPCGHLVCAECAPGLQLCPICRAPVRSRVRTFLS", "assay": "NanoBRET cellular target engagement, full-length BIRC7"}, "BIRC8": {"target": "T3, BIRC8 (Homo sapiens, UniProt Q96P09)", "T3 sequence (Q96P09 1-236)": "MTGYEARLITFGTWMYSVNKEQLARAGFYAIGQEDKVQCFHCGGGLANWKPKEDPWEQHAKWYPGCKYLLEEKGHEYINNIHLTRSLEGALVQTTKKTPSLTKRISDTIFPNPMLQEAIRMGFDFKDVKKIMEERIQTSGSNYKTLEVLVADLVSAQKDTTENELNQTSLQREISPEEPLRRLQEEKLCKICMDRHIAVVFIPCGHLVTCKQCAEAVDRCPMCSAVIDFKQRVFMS", "assay": "NanoBRET cellular target engagement, full-length BIRC8", "experimental": "as §1"}, "BIRC7 BIR": {"target": "T4, BIRC7 BIR (Homo sapiens, UniProt Q96CA5)", "T4 sequence (Q96CA5 70-176)": "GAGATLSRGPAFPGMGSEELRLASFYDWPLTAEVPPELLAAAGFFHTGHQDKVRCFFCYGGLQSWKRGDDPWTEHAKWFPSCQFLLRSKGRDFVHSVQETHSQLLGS", "assay": "NanoBRET cellular target engagement, single domain BIRC7 BIR", "experimental": "as §1"}, "BIRC8 BIR": {"target": "T5, BIRC8 BIR (Homo sapiens, UniProt Q96P09)", "T5 sequence (Q96P09 1-90)": "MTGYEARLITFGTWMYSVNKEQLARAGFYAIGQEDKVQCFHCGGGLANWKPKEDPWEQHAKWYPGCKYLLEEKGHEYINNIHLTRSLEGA", "assay": "NanoBRET cellular target engagement, single domain BIRC8 BIR", "experimental": "as §1"}, "BIRC2 BIR2": {"target": "BIRC2 BIR2 (Homo sapiens, UniProt Q13490)", "sequence (Q13490 165-267)": "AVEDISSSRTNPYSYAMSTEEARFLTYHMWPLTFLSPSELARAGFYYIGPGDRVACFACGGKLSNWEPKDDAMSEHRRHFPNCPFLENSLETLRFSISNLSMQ", "assay": "NanoBRET cellular target engagement, single domain BIRC2 BIR2", "settings": "read-out: EC50 ± SEM NanoBRET BIRC2 BIR2; single domain, HEK293T, n = 4", "experimental": "as §1"}, "BIRC2 BIR3": {"target": "BIRC2 BIR3 (Homo sapiens, UniProt Q13490)", "sequence (Q13490 251-372)": "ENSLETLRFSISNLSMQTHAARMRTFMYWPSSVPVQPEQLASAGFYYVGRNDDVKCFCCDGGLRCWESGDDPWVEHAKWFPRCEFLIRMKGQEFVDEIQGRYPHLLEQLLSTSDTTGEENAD", "assay": "NanoBRET cellular target engagement, single domain BIRC2 BIR3", "settings": "read-out: EC50 ± SEM NanoBRET BIRC2 BIR3; single domain, HEK293T, n = 4", "experimental": "as §1"}, "BIRC1 BIR[2]": {"target": "T6, BIRC1 BIR[2] (Homo sapiens, UniProt Q13075)", "T6 sequence (Q13075 139-251)": "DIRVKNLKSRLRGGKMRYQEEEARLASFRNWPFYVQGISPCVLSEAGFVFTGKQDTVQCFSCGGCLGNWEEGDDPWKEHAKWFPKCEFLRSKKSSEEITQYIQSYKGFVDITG", "assay": "NanoBRET cellular target engagement, single domain BIRC1 BIR[2]", "experimental": "as §1"}, "BIRC2-BIR3 domain [3]": {"target": "T1, BIRC2-BIR3 domain", "assay": "Fluorescence polarization (FP) competition assay with fluorescent SMAC probe", "format": "binding", "set-up": "BIRC2-BIR3 domain (260–352) was expressed; His6 (N, cleaved yes); GST (N, cleaved yes); made in house; host or cells: E. coli", "settings": "BIRC2 BIR3 domain; Cheng-Prusoff from IC50; mean ± SD, n = 3; read-out: FP Assay K I Values", "method": "Resulting data was plotted using GraphPad Prism 9.3 software and analyzed using a nonlinear fit to calculate the probe IC50. […] Compounds were titrated from 20 μM to 20 nM using an ECHO 550 acoustic dispenser (Labcyte) incubated for 1 h at room temperature and subsequent read out.\nThe assay is based on the displacement of a fluorescent SMAC mimetic from the binding site."}, "BIRC2-BIR3 domain [4]": {"target": "T1, BIRC2-BIR3 domain", "assay": "Isothermal titration calorimetry (ITC)", "format": "binding", "set-up": "BIRC2-BIR3 domain (260–352) was expressed; His6 (N, cleaved yes); GST (N, cleaved yes); made in house; host or cells: E. coli", "settings": "25°C; duplicates, mean ± SD; read-out: K D Measured in ITC", "method": "For this protocol, the chamber was pre-equilibrated with the test compound, and the BIRC2-BIR3 domain was titrated in while continuously measuring the rate of exothermic heat evolution. The heat of binding was integrated, corrected, and fitted to an independent single-binding site model based on the manufacturer’s instructions, from which thermodynamic parameters (ΔH and TΔS), equilibrium association and dissociation constants (K A and K D, respectively), and stoichiometry (n) were calculated."}, "BIRC2-BIR3 domain [5]": {"target": "T1, BIRC2-BIR3 domain", "set-up": "BIRC2-BIR3 domain (260–352) was expressed; His6 (N, cleaved yes); GST (N, cleaved yes); made in house; host or cells: E. coli", "settings": "ref Lu et al. (2008); read-out: Literature FP Assay K I Values; cited from earlier work"}, "BIRC4": {"target": "BIRC4 (Homo sapiens, UniProt P98170)", "sequence (P98170 whole entry)": "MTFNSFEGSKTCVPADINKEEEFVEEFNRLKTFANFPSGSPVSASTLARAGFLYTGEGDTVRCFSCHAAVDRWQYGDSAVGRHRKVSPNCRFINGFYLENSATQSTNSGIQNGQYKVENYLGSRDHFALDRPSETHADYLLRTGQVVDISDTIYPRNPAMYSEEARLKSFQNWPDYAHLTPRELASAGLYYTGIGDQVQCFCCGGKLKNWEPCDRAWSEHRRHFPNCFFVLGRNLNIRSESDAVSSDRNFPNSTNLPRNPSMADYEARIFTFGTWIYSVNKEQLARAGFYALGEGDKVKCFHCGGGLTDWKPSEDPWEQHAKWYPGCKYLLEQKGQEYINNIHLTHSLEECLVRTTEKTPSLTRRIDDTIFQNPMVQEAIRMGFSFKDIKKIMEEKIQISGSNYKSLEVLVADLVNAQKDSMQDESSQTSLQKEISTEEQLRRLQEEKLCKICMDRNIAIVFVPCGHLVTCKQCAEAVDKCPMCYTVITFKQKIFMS", "assay": "NanoBRET cellular target engagement, full-length BIRC4", "experimental": "as §1"}, "BIRC3": {"target": "BIRC3 (Homo sapiens, UniProt Q13489)", "sequence (Q13489 whole entry)": "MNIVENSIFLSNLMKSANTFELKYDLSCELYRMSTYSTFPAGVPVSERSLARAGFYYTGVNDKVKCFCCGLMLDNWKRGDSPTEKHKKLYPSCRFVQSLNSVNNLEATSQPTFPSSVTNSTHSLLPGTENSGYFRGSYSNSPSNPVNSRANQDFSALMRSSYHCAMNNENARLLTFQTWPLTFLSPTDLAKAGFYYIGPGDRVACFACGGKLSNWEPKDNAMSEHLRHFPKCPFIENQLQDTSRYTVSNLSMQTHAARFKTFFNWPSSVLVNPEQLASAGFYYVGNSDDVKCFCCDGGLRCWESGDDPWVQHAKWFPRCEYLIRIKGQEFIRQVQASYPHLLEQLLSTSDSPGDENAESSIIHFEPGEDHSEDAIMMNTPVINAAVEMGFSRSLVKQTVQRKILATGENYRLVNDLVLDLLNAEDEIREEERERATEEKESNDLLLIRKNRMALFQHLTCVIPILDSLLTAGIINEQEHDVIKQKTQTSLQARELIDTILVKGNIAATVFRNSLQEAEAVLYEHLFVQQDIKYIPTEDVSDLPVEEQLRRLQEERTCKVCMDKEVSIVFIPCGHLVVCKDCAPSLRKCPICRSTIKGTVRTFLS", "assay": "NanoBRET cellular target engagement, full-length BIRC3", "experimental": "as §1"}, "BIRC3 BIR2": {"target": "BIRC3 BIR2 (Homo sapiens, UniProt Q13489)", "sequence (Q13489 147-253)": "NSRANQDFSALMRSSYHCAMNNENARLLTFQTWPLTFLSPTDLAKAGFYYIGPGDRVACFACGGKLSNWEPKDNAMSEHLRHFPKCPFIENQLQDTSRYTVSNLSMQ", "assay": "NanoBRET cellular target engagement, single domain BIRC3 BIR2", "experimental": "as §1"}, "BIRC3 BIR3": {"target": "BIRC3 BIR3 (Homo sapiens, UniProt Q13489)", "sequence (Q13489 236-360)": "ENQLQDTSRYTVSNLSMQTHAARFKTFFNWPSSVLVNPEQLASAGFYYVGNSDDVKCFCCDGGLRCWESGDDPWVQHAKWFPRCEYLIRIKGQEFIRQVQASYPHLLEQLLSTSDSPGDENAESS", "assay": "NanoBRET cellular target engagement, single domain BIRC3 BIR3", "experimental": "as §1"}}, "note": "Like-named read-outs stand apart in the source and are kept apart here.", "data": [{"smiles": "CN[C@@H](C)C(=O)N[C@H]1CCCC[C@H]2CC[C@@H](C(=O)N[C@@H](c3ccccc3)c3cn(CCCCc4ccc(CCCCn5cc([C@@H](NC(=O)[C@@H]6CC[C@@H]7CCCC[C@H](NC(=O)[C@H](C)NC)C(=O)N76)c6ccccc6)nn5)cc4)nn3)N2C1=O", "note": "[SM-164]", "values": [{"measurement": "DSF Assay ΔTm", "setting": "BIRC2-BIR3 domain [1]; difference in melting temperature to DMSO control, 20 μM protein, 40 μM inhibitor, mean ± SD, n = 3", "value": "13.4 ± 0.2", "unit": "°C"}, {"measurement": "Mean, ΔTm [°C] (Supplementary Table S1)", "setting": "BIRC2-BIR3 domain [1]; mean of n=3, difference to DMSO control", "value": 13.4, "unit": "°C"}, {"measurement": "ΔTm [°C] (Supplementary Table S1)", "setting": "BIRC2-BIR3 domain [1]; first column", "value": 13.6, "unit": "°C"}, {"measurement": "ΔTm [°C] (Supplementary Table S1)", "setting": "BIRC2-BIR3 domain [1]; second column", "value": 13.4, "unit": "°C"}, {"measurement": "ΔTm [°C] (Supplementary Table S1)", "setting": "BIRC2-BIR3 domain [1]; third column", "value": 13.1, "unit": "°C"}, {"measurement": "EC50", "setting": "BIRC2", "value": "0.0058 ± 0.0006", "unit": "µM"}, {"measurement": "EC50", "setting": "BIRC7; read-out: EC50 ± SEM NanoBRET BIRC7, full-length, HEK293T, n = 4", "value": "0.0165 ± 0.006", "unit": "µM"}, {"measurement": "EC50", "setting": "BIRC8; read-out: EC50 ± SEM NanoBRET BIRC8, full-length, HEK293T, n = 4", "value": "0.0857 ± 0.0047", "unit": "µM"}, {"measurement": "EC50", "setting": "BIRC7 BIR; read-out: EC50 ± SEM NanoBRET BIRC7 BIR, single domain, HEK293T, n = 4", "value": "0.0509 ± 0.0444", "unit": "µM"}, {"measurement": "EC50", "setting": "BIRC8 BIR; read-out: EC50 ± SEM NanoBRET BIRC8 BIR, single domain, HEK293T, n = 4", "value": "0.0873 ± 0.0094", "unit": "µM"}, {"measurement": "EC50", "setting": "BIRC2 BIR2", "value": "6.61 ± 5.28", "unit": "µM"}, {"measurement": "EC50", "setting": "BIRC2 BIR3", "value": "0.0008 ± 0.0001", "unit": "µM"}, {"measurement": "EC50", "setting": "BIRC1 BIR[2]; read-out: EC50 ± SEM NanoBRET BIRC1 BIR[2], single domain, HEK293T, n = 4", "value": "0.941 ± 0.258", "unit": "µM"}, {"measurement": "Ki", "setting": "BIRC2-BIR3 domain [3]", "value": "0.0018 ± 0.0007", "unit": "µM"}, {"measurement": "Kd", "setting": "BIRC2-BIR3 domain [4]", "value": "0.0416 ± 0.0034", "unit": "µM"}, {"measurement": "Ki", "setting": "BIRC2-BIR3 domain [5]", "value": "0.0003 ± 0.0001", "unit": "µM"}]}, {"smiles": "CN[C@@H](C)C(=O)N[C@H](C(=O)N1CCC[C@H]1C(=O)Nc1snnc1-c1ccccc1)C1CCCCC1", "note": "[GDC-0152]", "values": [{"measurement": "EC50", "setting": "BIRC4", "value": "0.0153 ± 0.005", "unit": "µM"}, {"measurement": "EC50", "setting": "BIRC7", "value": "0.0355 ± 0.0094", "unit": "µM"}, {"measurement": "EC50", "setting": "BIRC8", "value": "0.134 ± 0.0084", "unit": "µM"}, {"measurement": "EC50", "setting": "BIRC7 BIR", "value": "0.0284 ± 0.0027", "unit": "µM"}, {"measurement": "EC50", "setting": "BIRC8 BIR", "value": "0.146 ± 0.0038", "unit": "µM"}, {"measurement": "EC50", "setting": "BIRC1 BIR[2]", "value": "15.2 ± 1.23", "unit": "µM"}]}, {"smiles": "CN[C@@H](C)C(=O)N[C@H](C(=O)N1CCC[C@H]1c1nc(C(=O)c2ccc(F)cc2)cs1)C1CCCCC1", "note": "[LCL161]", "values": [{"measurement": "EC50", "setting": "BIRC7", "value": "0.0264 ± 0.0055", "unit": "µM"}, {"measurement": "EC50", "setting": "BIRC8", "value": "0.199 ± 0.0214", "unit": "µM"}, {"measurement": "EC50", "setting": "BIRC7 BIR", "value": "0.0285 ± 0.007", "unit": "µM"}, {"measurement": "EC50", "setting": "BIRC8 BIR", "value": "0.258 ± 0.0424", "unit": "µM"}, {"measurement": "EC50", "setting": "BIRC1 BIR[2]", "value": "1.49 ± 0.297", "unit": "µM"}]}, {"smiles": "CC[C@H](NC(=O)[C@H](C)NC)C(=O)N1C[C@@H](O)C[C@H]1Cc1c(-c2[nH]c3cc(F)ccc3c2C[C@@H]2C[C@H](O)CN2C(=O)[C@H](CC)NC(=O)[C@H](C)NC)[nH]c2cc(F)ccc12", "note": "[Birinapant]", "values": [{"measurement": "EC50", "setting": "BIRC3", "value": "0.8 ± 0.4", "unit": "µM"}, {"measurement": "EC50", "setting": "BIRC8", "value": "2.2 ± 1.1", "unit": "µM"}, {"measurement": "EC50", "setting": "BIRC8 BIR", "value": "3.5 ± 0.1", "unit": "µM"}, {"measurement": "EC50", "setting": "BIRC3 BIR2", "value": "17.4 ± 1.7", "unit": "µM"}, {"measurement": "EC50", "setting": "BIRC3 BIR3", "value": 0.9, "unit": "µM"}, {"measurement": "EC50", "setting": "BIRC1 BIR[2]", "value": "18.3 ± 1.1", "unit": "µM"}]}]}
